This passage reports IC50 results from ChEMBL document CHEMBL6134880, “Targeting Oncogenic Pathways: Advances in KRAS, CDK, EGFR, and PROTAC-Based Therapies” (ACS Med Chem Lett, 2025).

pIC50: −log10 of the molar value.

Assay [1] is described as follows: Inhibition of GST-tagged KRAS G12V mutant (2 to 169 residues) (unknown origin)/SOS1 catalytic domain (564 to 1069 residues) (unknown origin) protein-protein interaction preincubated with compound for 60 mins followed by SOS1 and GTP-DY-647P1 addition and measured after 90 mins by fluorescence based nucleotide exchange assay. Further details: species or system Homo sapiens.

The target of assay [2] is SOS1-KRAS (Homo sapiens, UniProt P01116, G12D). Nature of the assay: Inhibition of GST-tagged KRAS G12D mutant (2 to 169 residues) (unknown origin)/SOS1 catalytic domain (564 to 1069 residues) (unknown origin) protein-protein interaction preincubated with compound for 60 mins followed by SOS1 and GTP-DY-647P1 addition and measured after 30 mins by fluorescence based nucleotide exchange assay. It is filed as protein-complex assay.

The pIC50 is the negative decadic logarithm of the IC50, by convention in mol/L.

Turning to `N#Cc1c(N)sc2c1C1(CC2)CN(c2nc(OC[C@@]34CCCN3C[C@H](F)C4)nc(N3CCCC(C#N)CC3)n2)C1` (some centres undefined), the pIC50 in assay [1] was over 8.00; in assay [2] it was 8.00.
The matching figures for `C[C@@]1(O)C[C@@H](O)CN(c2nc(OC[C@@]34CCCN3C[C@H](F)C4)nc(N3CC4(CCc5sc(N)c(C#N)c54)C3)n2)C1`: over 8.00 and over 8.00.
The matching figures for `CN(C)CC1(COc2nc(N3CC4(CCc5sc(N)c(C#N)c54)C3)nc(N3CCC[C@@](C)(O)C3)n2)CC1(F)F` (some centres undefined): over 8.00 and over 8.00.
For `N#Cc1c(N)sc2c1C1(CC2)CN(c2nc(OCC3(CN4CCOCC4)CC3)nc(N3C[C@H]4CC[C@@H](C3)N4)n2)C1`, in that order: 8.00 and over 8.00.
With `CC1(O)CCN(c2nc(OCC3(CN4CCOCC4)CC3)nc(N3CC4(CCc5sc(N)c(C#N)c54)C3)n2)CC1`, the pIC50 in assay [1] and in assay [2] was over 8.00 in each case.
For the compound `N#Cc1c(N)sc2c1C1(CC2)CN(c2nc(OC[C@@]34CCCN3C[C@H](F)C4)nc(N3CCCC4(C3)NC(=O)NC4=O)n2)C1` (some centres undefined), the pIC50 in assay [1] and in assay [2] was over 8.00 throughout.
For `C=C1CN2CCCC2(COc2nc(N3CC4(CCc5sc(N)c(C#N)c54)C3)nc(N3CCC[C@@](C)(O)C3)n2)C1` (some centres undefined), the pIC50 in assay [1] and in assay [2] was over 8.00 each time.
`CC1(O)CCCCN(c2nc(OC[C@@]34CCCN3C[C@H](F)C4)nc(N3CC4(CCc5sc(N)c(C#N)c54)C3)n2)C1` (some centres undefined): the figures for the pIC50 in assay [1] and in assay [2] were over 8.00 and 8.00, respectively.
For `C[C@@]1(O)CCCN(c2nc(OC[C@@]34CCCN3C[C@H](F)C4)nc(N3CC4(C3)SCc3sc(N)c(C#N)c34)n2)C1`, in that order: over 8.00 and over 8.00.
For `N#Cc1c(N)sc2c1C1(CC2)CN(c2nc(OC[C@@]34CCCN3C[C@H](F)C4)nc(N3CCCCC(O)C3)n2)C1` (some centres undefined), in that order: over 8.00 and 8.00.
For `N#Cc1c(N)sc2c1C1(CC2)CN(c2nc(OCC3(CN4CCOCC4)CC3)nc(N3CCCC4(C3)NC(=O)NC4=O)n2)C1` (centres undefined), in that order: over 8.00 and over 8.00.
Consider `C[C@@]1(O)CCCN(c2nc(OC[C@@]34CCCN3C[C@H](F)C4)nc(N3CC4(CCc5sc(N)c(C#N)c54)C3)n2)C1`, for which the pIC50 in assay [1] and in assay [2] was over 8.00 each time.
